Holding throughout (assay type): biochemical
For experiment [1], the target named is T1, FGFR1 (Homo sapiens, UniProt P11362). Nature of the experiment: Caliper mobility shift kinase assay with recombinant FGFR1, also at varied ATP concentrations.
For experiment [2], the target named is FGFR3 (Homo sapiens, UniProt P22607). Kind of experiment: cell-free kinase assay (authors' own, called previous). The note with it: cited from earlier work.
The target in experiment [3] is T1, FGFR1. Kind of experiment: Caliper mobility shift kinase assay with recombinant FGFR1, ATP at Km ([…]).

These results are taken from article PMC4410475, “Discovery and anti-cancer evaluation of two novel non-ATP-competitive FGFR1 inhibitors in non-small-cell lung cancer” (BMC Cancer, 2015).

What is called IC50 is the concentration that gives 50% inhibition.

The structures appear in SMILES notation.

T1 sequence (P11362 22-822): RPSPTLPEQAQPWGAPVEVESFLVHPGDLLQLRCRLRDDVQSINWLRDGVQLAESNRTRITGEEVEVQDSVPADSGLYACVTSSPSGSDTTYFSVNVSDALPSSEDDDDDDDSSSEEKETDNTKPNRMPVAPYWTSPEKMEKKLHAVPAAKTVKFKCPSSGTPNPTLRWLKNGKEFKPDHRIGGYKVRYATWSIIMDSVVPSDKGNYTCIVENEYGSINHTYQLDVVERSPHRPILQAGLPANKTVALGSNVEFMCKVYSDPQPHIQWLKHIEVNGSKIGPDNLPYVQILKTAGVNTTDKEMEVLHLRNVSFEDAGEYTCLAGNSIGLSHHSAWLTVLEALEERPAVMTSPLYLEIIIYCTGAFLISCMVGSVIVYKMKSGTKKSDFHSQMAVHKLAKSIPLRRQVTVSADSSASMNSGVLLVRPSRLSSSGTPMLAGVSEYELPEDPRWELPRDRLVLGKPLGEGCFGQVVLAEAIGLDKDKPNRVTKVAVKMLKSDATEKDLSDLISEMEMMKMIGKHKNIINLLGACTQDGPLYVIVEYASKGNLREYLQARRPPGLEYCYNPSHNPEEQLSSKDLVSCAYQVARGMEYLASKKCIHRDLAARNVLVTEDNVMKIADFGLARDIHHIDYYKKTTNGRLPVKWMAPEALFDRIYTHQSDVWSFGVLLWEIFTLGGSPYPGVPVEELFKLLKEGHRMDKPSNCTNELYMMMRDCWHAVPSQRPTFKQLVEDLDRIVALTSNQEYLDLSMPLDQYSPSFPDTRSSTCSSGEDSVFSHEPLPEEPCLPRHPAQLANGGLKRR
Sequence of FGFR3 (P22607 23-806): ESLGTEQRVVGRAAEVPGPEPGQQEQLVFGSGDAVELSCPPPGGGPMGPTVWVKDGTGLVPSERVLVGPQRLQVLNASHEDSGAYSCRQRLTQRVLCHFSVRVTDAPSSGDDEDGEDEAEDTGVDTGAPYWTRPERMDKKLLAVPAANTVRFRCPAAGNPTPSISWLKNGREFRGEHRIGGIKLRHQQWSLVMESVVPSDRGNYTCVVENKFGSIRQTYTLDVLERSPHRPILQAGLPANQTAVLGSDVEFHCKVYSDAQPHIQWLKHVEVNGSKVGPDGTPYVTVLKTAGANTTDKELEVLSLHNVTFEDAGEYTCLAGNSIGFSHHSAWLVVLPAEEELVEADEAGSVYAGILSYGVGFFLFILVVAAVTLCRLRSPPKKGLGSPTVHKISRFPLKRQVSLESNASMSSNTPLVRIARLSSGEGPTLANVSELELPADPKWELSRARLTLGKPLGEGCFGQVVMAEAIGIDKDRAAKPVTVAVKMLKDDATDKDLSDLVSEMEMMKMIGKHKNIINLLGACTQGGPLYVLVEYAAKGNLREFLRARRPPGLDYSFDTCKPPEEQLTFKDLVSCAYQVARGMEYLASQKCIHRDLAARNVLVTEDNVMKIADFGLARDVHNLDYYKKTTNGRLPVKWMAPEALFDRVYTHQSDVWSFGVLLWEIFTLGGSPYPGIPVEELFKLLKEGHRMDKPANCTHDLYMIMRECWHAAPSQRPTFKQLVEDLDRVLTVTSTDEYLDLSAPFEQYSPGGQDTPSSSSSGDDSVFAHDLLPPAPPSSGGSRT

`CC(Cc1ccc(O)c(O)c1)C(C)Cc1ccc(O)c(O)c1` (stereo not shown) [NDGA, nordihydroguaiaretic acid]: the values for the IC50 in experiment [1] and in experiment [2] were 24.5 µM and 72.4 µM, respectively.
Regarding `O=C1/C(=C/c2ccc(O)c(O)c2)CSC/C1=C\c1ccc(O)c(O)c1` [Ad23, 3,5-bis(3,4-dihydroxybenzylidene)-tetrahydrothiopyran-4-one], in experiment [3], the IC50 came out at 0.6 µM.
The same measure, in the same setting: to `O=C1/C(=C/c2ccc(O)c(O)c2)COC/C1=C\c1ccc(O)c(O)c1` [Af23, 3,5-bis(3,4-dihydroxybenzylidene)-tetrahydropyran-4-one] belongs 1.4 µM.
